Data taken from paper PMC10528180 (Foods, 2023).

How the values were obtained:
α-glucosidase = molecular target: T1, α-glucosidase (Saccharomyces cerevisiae, UniProt P53341); experiment: Fluorescence quenching experiment with α-glucosidase (Stern-Volmer, double logarithmic, Van 't Hoff); assay type: binding; details: for Kd: Ka (binding constant) α-glucosidase
T1 construct: purchased Sigma-Aldrich Co
Description: Based on the previously described techniques, the fluorescence quenching experiment was somewhat modified. […] The reaction solution’s fluorescence intensity was measured in a quartz colorimetric dish using a fluorescence spectrometer (F-7100, Tokyo, Japan) at wavelengths ranging from 295 to 500 nm (emission wavelength) and 280 nm ([…]) (1.0 cm path length). The 5.0 nm excitation and emission slit widths were predetermined.
By determining the quenching constant, it is possible to discriminate between dynamic and static protein fluorescence quenching caused by compounds [39]. […] With the increase in temperature, the binding of the complex is unstable, so the quenching constant decreases. The drop in fluorescence intensity brought on by the interaction of the quencher and the fluorescence group is what causes dynamic quenching. When the collision between the quencher and the fluorescence group intensifies as the temperature rises, the quenching constant rises. The quenching mechanism of the enzyme was further studied using the Stern–Volmer equation:(2) F0/F=1+Kqτ0Q=1+Ksv[Q], where Kq is the bimolecular quenching constant, F0 represents the fluorescence intensity of starch-digesting enzymes in the absence of inhibitors, F represents the fluorescence intensity of starch-digesting enzymes in the presence of inhibitors, and τ0 is the lifetime of the fluorophore in protein (about 10^−8 s).
By calculating the thermodynamic parameters of the quenching process, the binding affinity and the main force of the reaction process were evaluated. The thermodynamic parameters are calculated using the Van ’t Hoff equation:(4) lnKa=−△H/RT+△S/R. (5) △G=△H−T△S. where Ka is the binding constant, R is the universal gas constant, and T represents the test temperature (300.15 K, 305.15 K, 310.15 K). The thermodynamic parameters ΔH, ΔS, and ΔG represent enthalpy change, entropy change, and free energy change, respectively. […] The interaction forces in the reaction process can be roughly divided into four types: hydrophobic interaction, hydrogen bonding, electrostatic interaction, and van der Waals interaction.

db/db mice = experiment: Postprandial blood glucose level measurement after oral starch load; assay type: in vivo; details: for glucose AUC / reduction of glucose AUC of diabetic mice: oral starch 2 g/kg; for reduction of glucose AUC of diabetic mice: vs model
Description: db/db mice and C57BL/6J mice were purchased f0rom Beijing Zhishan Health Medical Research Institute. The animal testing procedure was approved by Beijing Huayuan Times Technology Co., Ltd Ethics Committee on the Management and Welfare of Laboratory Animals. (Ethics review batch number: HYSD2023-04) and strictly follows the local and national codes of ethics. All mice were placed in a control chamber at 25 °C and 60% relative humidity with a light/dark period of 12/12 h. During this period, all mice had free access to normal feed and water. […] All mice were given starch (2 g/kg) orally 60 min after treatment. Blood samples were taken from the caudal vein and blood glucose was measured after 0, 30, 60, and 120 min. The area under the curve (AUC) was calculated using the trapezoidal rule.

T1 sequence (P53341 whole entry): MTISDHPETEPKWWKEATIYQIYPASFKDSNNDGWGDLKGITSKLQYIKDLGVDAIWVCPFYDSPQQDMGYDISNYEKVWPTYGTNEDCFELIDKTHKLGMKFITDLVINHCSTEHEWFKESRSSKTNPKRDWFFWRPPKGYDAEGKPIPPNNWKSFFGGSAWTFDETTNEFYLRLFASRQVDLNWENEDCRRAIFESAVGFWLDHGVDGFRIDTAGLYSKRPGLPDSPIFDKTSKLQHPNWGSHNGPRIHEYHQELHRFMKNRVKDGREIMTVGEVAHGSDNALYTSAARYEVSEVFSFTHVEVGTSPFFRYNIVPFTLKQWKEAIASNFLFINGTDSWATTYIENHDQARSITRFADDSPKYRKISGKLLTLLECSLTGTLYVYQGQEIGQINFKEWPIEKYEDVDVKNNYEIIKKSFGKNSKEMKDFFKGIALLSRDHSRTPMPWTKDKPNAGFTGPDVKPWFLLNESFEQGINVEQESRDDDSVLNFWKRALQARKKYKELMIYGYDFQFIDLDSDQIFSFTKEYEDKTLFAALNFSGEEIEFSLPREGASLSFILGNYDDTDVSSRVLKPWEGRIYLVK

Compound: O=c1c(O)c(-c2ccc(O)c(O)c2)oc2cc(O[C@@H]3O[C@H](CO)[C@@H](O)[C@H](O)[C@H]3O)cc(O)c12 [Quercimeritrin]
- fluorescence quenching mechanism, α-glucosidase (α-glucosidase): static quenching
- Kd (α-glucosidase; T 300.15 K): 1.15 µM
- Kd (α-glucosidase; T 305.15 K): 9.62 µM
- Kd (α-glucosidase; T 310.15 K): 24.4 µM
- Ksv (quenching constant) α-glucosidase (α-glucosidase; T 300.15 K): 0.17 ±0.03 10^5 /M
- n (number of binding sites) α-glucosidase (α-glucosidase; T 300.15 K): 1.35
- ΔG α-glucosidase (α-glucosidase; T 300.15 K): -8.15 ± 2.22 kcal/mol
- Ksv (quenching constant) α-glucosidase (α-glucosidase; T 305.15 K): 0.19 ±0.02 10^5 /M
- n (number of binding sites) α-glucosidase (α-glucosidase; T 305.15 K): 1.20
- ΔG α-glucosidase (α-glucosidase; T 305.15 K): -7 ± 2.24 kcal/mol
- Ka (binding constant) α-glucosidase (α-glucosidase; T 310.15 K): 0.41 ± 0.06 10^5 /M
- Ksv (quenching constant) α-glucosidase (α-glucosidase; T 310.15 K): 0.21 ±0.04 10^5 /M
- n (number of binding sites) α-glucosidase (α-glucosidase; T 310.15 K): 1.09
- ΔG α-glucosidase (α-glucosidase; T 310.15 K): -6.55 ± 1.87 kcal/mol
- ΔH α-glucosidase (α-glucosidase; Van 't Hoff, 300.15-310.15 K): -56.6 ± 5.598 kcal/mol
- ΔS α-glucosidase (α-glucosidase; Van 't Hoff, 300.15-310.15 K): -677.34 ±87.38 J/mol/K
- n (number of binding sites) α-glucosidase (α-glucosidase; text summary over temperatures): ~1
- glucose AUC (db/db mice; 100 mg/kg): 43.7 mmol·h/L
- reduction of glucose AUC of diabetic mice (db/db mice; 100 mg/kg): 19.0%
- glucose AUC (db/db mice; 200 mg/kg): 40.7 mmol·h/L
- reduction of glucose AUC of diabetic mice (db/db mice; 200 mg/kg): 24.5%
- postprandial blood glucose level (db/db mice; HD group 200 mg/kg, oral starch): significantly lower than that of the control and acarbose groups
